Test results published in patent publication US20110200646A1, “The TRPVL Antagonists SB-795498 For Treating Rhinitis” (priority 2008, published 2011).

Assays:
[1] = test system: capsaicin provoked nasal secretion; assay: Contralateral nasal fluid secretion (MRI) after ipsilateral capsaicin challenge in sensitised guinea pig; assay type: in vivo; conditions: for reduction of contralateral fluid secretion: oral, non micronised, 1 hour prior to 0.3 mM capsaicin challenge; for inhibition of capsaicin provoked nasal secretion: topical (intranasal) non-micronised
Method: (§1) Dunkin Hartley guinea pigs (ca. 180-200 g) were intranasally sensitised into both nostrils twice daily for 5 days with 25 μl of 10 μg ovalbimun plus 10 mg aluminium hydroxide in saline. This was followed up with one week of intranasal challenge in both nostrils with ovalbumin 25 μl of a 5 mg/ml saline solution per nostril (weekends eliminated).
(§2) Six animals per group were studied and a repeat of each study conducted to provide up to 12 animals per group in the final data set. Animals were pretreated with Compound 1 (intranasal administration 25 μl per nostril of a suspension or oral administration 1 ml of a solution in 50% deionised water 5% DMSO and 45% PEG 200). At a set time point the animals were anaethetised with urethane (1.5 g/kg) i.p. and scanned with magnetic resonance imaging (MRI) to obtain baseline nasal images. Each animal was then removed from the scanner and received an ipsilateral nasal challenge of capsaicin (50 μl of a solution 0.3 mM 5% DMSO, 5% Tween 80, 90% Phosphate buffered saline)) or 10% hypertonic saline solution (50 μl) (administered by pipette. The animal was rescanned at 10 minutes post-challenge to measure the contralateral fluid volumes.
The fluid measurement was made using standard T2 weighted spin echo MRI sequences on a 2 Tesla Bruker Medspec MRI scanner. The raw data was collected using Paravision 3.0.2 (Bruker) software. Fluid measurements were made using grey level thresholding technique using Mayo Clinic software Analyze 7.0. Statistical analysis was carried out using the Statistica 6.0 software by StatSoft

[2] = test system: hypertonic saline provoked nasal secretion; assay: Contralateral nasal fluid secretion (MRI) after ipsilateral hypertonic saline challenge in sensitised guinea pig; assay type: in vivo; conditions: topical micronised 1 mg/ml, 1 hour pre-treatment, 10% hypertonic saline challenge; p<0.005
Method: as §1, §2
(§3) The fluid measurement was made using standard T2 weighted spin echo MRI sequences on a 2 Tesla Bruker Medspec MRI scanner. The raw data was collected using Paravision 3.0.2 (Bruker) software. […]

[3] = test system: Capsaicin Induced Currents recorded from Nasally Innervated Guinea-Pig Trigeminal Ganglia Cell Bodies; assay: Whole cell patch clamp of capsaicin induced currents in nasally innervated trigeminal ganglia neurons; assay type: cell-based
Method: Nasal afferent neurons were retrogradely labelled by using DiIC13(3) solution (2% in DMSO, sonicated to ensure solubility) (Dil, Invitrogen), A guinea pig was dosed with atropine (1 mg/kg i.p.) 5 minutes prior to anaesthesia with isoflurane. Once unconscious 25 μl of the Dil solution was placed into the right nostril and the guinea pig allowed to recover. After 24 hours the procedure was repeated and the left nostril dosed. After a period of 2 weeks the guinea pig was killed via CO2 asphyxiation and the trigeminal ganglia rapidly dissected. An area of approximately 3 mm×2 mm which contained neurons that innervated the nose was isolated (J. Allergy Clin. Immunol. 2005, 116, 1282), cut into smaller pieces and incubated in enzyme buffer (8 mg papain in 4 ml L-15) at 37° C. for 40 min. The papain solution was removed and the tissue washed three times with 5-5 media (5-5 Media was prepared by the addition of 5 ml Fetal Bovine Serum, 5 ml Horse Serum, 1 ml 5000 Units Penicillin/5000 […] Streptomycin, 1 ml 30% Glucose and 0.33 ml of 1× stock Insulin Transferrin Sodium Selenite to 90 ml Minimum Essential Media with Earle's salts and Glutamax). The neurons were dissociated by trituration with 3 fire-polished glass Pastuer pipettes of decreasing tip size, then the resulting cell suspension filtered and centrifuged (1000 g for 4 min). The pellet was resuspended in 300 μl of 5-5 media. 25 μl of the cell suspension was plated onto poly-D-lysine and laminin coated 12 mm glass coverslips and placed in an incubator at 37° C. After 2 hours the coverslips were flooded with 5-5 media and used within 48 hours. Conventional whole cell patch clamp techniques were employed under voltage clamp (holding potential of −70 mV) at room temperature. Drug solutions were applied to the cell using a Rapid Solution Changer (Biologic). Cell bodies that had innervated the nose were identified using a fluorescence based microscope. All data was analysed using pClamp version 10.2.0.9 and 10.2.0.10 (Molecular Devices Inc).

[4] = test system: capsaicin provoked nasal tissue response; assay: Contralateral nasal tissue volume (MRI) after ipsilateral capsaicin challenge in guinea pig; assay type: in vivo; conditions: 1 hour pre-treatment, 0.3 mM capsaicin challenge
Method: as §1, §2, §3

Compound | reduction of contralateral fluid secretion ([1]; 10 mg/kg, p<0.05) | reduction of contralateral fluid secretion ([1]; 30 mg/kg, p<0.001) | inhibition of capsaicin provoked nasal secretion ([1]; 10 mg/ml, 1 hour pre-treatment, p<0.005) [%] | inhibition of capsaicin provoked nasal secretion ([1]; 30 mg/ml, 1 hour pre-treatment) | inhibition of the capsaicin response (nasal secretion) ([1]; topical micronised, 1 hour pre-treatment, all the doses evaluated) | inhibition of contralateral response (nasal secretion) ([1]; topical micronised, capsaicin challenge 12 hours after pre-treatment) [%] | inhibition of contralateral response (nasal secretion) ([1]; topical micronised, capsaicin challenge 24 hours after pre-treatment) [%] | inhibition of the hypertonic saline response (nasal secretion) [2] [%] | IC50 ([3]; Cavia porcellus, Neuron, 1 μM capsaicin, voltage clamp −70 mV, room temperature, Hill equation fit, n>4, read-out: IC50, inhibition of capsaicin response (inward current)) [nM] | inhibition of the capsaicin response (current), concentration dependence ([3]; voltage clamp −70 mV) | reversibility of inhibition on switching from capsaicin and Compound 1 to capsaicin only ([3]; voltage clamp −70 mV) | reduction of contralateral tissue swelling compared to vehicle control ([4]; topical micronised 3 mg/ml, p<0.05) [%] | reduction of contralateral tissue swelling compared to vehicle control ([4]; topical micronised 30 mg/ml, p<0.01) [%] | cells tested producing an inward current ([3]; 1 μM capsaicin, small diameter (<30 μm) fluorescent neurons, voltage clamped at −70 mV) [%]
O=C(Nc1ccccc1Br)N[C@@H]1CCN(c2ccc(C(F)(F)F)cn2)C1 [Compound 1, N-(2-bromophenyl)-N′-[((R)-1-(5-trifluoromethyl-2-pyridyl)pyrrolidin-3-yl)]urea] | ca. 50% | ca. 70% | > 50 | ca. 75% | significant inhibition | 62 | 52 | 68 | 59 | concentration related inhibition | rapid reversal | 56 | 83 | –
COc1cc(CNC(=O)CCCC/C=C/C(C)C)ccc1O [capsaicin, reference compound] | – | – | – | – | – | – | – | – | – | – | – | – | – | 56
